Measurements published in ChEMBL document CHEMBL1201862, “PubChem BioAssay data set” (2004).
Activity calls are given as the source filed them.

What was measured:
[1] = target: Tyrosine-protein phosphatase non-receptor type 12 (Homo sapiens, UniProt Q05209); assay: SAR Selectivity Analysis of small molecule inhibitors of PEST using pCAP in a fluorescence assay. [Related pubchem assays (depositor defined):AID1779, AID1784, AID2135]; format: functional
[2] = target: Glyceraldehyde-3-phosphate dehydrogenase (Homo sapiens, UniProt P04406)
[3] = target: T1, Tyrosine-protein phosphatase non-receptor type 22 (Homo sapiens, UniProt Q9Y2R2); assay: SAR LYP1 Fluorescent Assay using OMFP substrate for In Vitro dose response studies - Set 3. [Related pubchem assays (depositor defined):AID1779, AID1784, AID2140, AID2686]; format: functional
T1 sequence (Q9Y2R2 whole entry): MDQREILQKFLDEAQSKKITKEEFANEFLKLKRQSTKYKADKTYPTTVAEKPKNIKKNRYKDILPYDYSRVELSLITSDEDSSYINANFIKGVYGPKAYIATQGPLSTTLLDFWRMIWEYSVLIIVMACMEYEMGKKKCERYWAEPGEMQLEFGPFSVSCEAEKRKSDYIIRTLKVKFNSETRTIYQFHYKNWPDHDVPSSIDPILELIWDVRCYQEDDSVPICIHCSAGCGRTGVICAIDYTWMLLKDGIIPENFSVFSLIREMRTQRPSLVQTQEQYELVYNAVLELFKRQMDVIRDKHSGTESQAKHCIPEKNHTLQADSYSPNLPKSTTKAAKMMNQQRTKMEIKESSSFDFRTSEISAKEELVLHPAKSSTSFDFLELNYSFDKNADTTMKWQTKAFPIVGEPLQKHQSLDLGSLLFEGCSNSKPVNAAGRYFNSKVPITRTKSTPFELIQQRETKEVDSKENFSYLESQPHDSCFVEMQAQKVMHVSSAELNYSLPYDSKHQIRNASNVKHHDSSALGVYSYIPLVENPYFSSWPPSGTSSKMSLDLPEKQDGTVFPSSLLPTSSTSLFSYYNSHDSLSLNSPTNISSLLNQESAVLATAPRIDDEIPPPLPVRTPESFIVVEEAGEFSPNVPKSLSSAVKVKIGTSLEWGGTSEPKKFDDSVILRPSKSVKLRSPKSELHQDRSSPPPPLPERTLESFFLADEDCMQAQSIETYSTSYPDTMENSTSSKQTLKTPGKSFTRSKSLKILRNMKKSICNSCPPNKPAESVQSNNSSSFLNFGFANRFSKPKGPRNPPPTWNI

[4] = target: T1, Tyrosine-protein phosphatase non-receptor type 22; assay: LYP (PTPN22) phosphatase inhibitor potency, SAR follow-up, biochemical, pCAP fluorogenic substrate, fluorescence, set 3 (AID 449727); format: functional
[5] = target: T2, Calpain-2 catalytic subunit (Sus scrofa, UniProt P43367); assay: pig calpain II inhibitor potency, dose response, biochemical, fluorogenic peptide substrate (AID 1420); format: functional
T2 sequence (P43367 whole entry): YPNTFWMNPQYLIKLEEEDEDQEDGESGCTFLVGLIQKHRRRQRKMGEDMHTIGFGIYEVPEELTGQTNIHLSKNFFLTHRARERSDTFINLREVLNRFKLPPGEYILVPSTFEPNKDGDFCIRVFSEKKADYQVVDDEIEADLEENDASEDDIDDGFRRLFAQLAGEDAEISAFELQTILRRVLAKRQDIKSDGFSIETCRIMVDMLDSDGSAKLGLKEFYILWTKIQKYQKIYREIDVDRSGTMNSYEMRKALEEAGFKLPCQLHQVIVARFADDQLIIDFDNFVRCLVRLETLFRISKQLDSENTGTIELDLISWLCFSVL

[6] = target: Large T antigen (Simian virus 40, UniProt P03070); format: functional, Betapolyomavirus macacae;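 also: Confirmatory-stage PubChem screen for compounds that inhibit SV40 T antigen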
Sequence of Large T antigen (P03070 whole entry): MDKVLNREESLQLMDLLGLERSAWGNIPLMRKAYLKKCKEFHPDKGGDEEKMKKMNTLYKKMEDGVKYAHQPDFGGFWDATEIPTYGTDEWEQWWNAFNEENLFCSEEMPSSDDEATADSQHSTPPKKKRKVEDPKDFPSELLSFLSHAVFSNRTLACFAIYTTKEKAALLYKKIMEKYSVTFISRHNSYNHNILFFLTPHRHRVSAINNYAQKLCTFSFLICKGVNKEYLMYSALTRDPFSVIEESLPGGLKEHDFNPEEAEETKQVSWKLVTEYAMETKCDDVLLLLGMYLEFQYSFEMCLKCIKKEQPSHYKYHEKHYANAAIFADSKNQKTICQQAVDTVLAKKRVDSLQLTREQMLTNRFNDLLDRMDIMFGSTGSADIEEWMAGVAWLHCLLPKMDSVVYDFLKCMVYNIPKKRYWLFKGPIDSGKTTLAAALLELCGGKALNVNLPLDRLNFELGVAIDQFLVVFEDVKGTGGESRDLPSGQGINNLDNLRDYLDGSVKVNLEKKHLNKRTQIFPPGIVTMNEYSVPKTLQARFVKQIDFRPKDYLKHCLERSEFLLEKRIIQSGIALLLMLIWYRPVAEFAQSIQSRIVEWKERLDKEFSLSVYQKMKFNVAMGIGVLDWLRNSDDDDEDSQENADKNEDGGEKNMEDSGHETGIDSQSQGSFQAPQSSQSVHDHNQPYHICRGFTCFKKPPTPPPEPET

[7] = target: Induced myeloid leukemia cell differentiation protein Mcl-1 (Homo sapiens, UniProt Q07820); format: functional
Sequence of Induced myeloid leukemia cell differentiation protein Mcl-1 (Q07820 whole entry): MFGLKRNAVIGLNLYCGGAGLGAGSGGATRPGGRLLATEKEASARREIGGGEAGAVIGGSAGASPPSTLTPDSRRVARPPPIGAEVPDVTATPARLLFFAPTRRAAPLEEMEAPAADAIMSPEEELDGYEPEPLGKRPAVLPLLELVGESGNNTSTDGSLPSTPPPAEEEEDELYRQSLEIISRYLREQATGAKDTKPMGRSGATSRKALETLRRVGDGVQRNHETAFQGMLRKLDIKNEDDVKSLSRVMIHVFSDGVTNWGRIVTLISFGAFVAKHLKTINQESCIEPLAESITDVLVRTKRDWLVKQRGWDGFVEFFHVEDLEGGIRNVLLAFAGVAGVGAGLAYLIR

[8] = target: Phospholipase A2 (Homo sapiens, UniProt P04054); format: functional;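 also: confirmatory dose-response counterscreen on phospholipase A2, testing hits that came from an ultra-high-throughput screen for ATG4B inhibitors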
Sequence of Phospholipase A2 (P04054 whole entry): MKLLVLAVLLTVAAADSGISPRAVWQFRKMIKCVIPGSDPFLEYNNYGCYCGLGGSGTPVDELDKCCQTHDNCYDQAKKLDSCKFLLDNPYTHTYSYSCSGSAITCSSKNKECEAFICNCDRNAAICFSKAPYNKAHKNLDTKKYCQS

[9] = target: Guanyl-specific ribonuclease T1 (Aspergillus oryzae (strain ATCC 42149 / RIB 40), UniProt P00651); assay: RNase T1 inhibitors, dose response, counter-screen for TPT1 inhibitor project, biochemical, fluorescence polarization, 1536-well (AID 2167)
[10] = tested on: HeLa; assay: HeLa cell cytotoxicity, dose response, cytotoxicity control, 24 h, cherry-picked samples (AID 504726); format: functional, cell-based; details: Homo sapiens;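 also: potency for cytotoxicity as loss of luminescence signal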
[11] = target: T3, Aminopeptidase N (Plasmodium falciparum FcB1/Columbia, UniProt O96935); assay: P. falciparum M1AAP inhibitors, biochemical, fluorogenic H-Leu-NHMec substrate, 1536-well (AID 1445); parameters: species or system Plasmodium falciparum 3D7, 3D7
T3 sequence (O96935 whole entry): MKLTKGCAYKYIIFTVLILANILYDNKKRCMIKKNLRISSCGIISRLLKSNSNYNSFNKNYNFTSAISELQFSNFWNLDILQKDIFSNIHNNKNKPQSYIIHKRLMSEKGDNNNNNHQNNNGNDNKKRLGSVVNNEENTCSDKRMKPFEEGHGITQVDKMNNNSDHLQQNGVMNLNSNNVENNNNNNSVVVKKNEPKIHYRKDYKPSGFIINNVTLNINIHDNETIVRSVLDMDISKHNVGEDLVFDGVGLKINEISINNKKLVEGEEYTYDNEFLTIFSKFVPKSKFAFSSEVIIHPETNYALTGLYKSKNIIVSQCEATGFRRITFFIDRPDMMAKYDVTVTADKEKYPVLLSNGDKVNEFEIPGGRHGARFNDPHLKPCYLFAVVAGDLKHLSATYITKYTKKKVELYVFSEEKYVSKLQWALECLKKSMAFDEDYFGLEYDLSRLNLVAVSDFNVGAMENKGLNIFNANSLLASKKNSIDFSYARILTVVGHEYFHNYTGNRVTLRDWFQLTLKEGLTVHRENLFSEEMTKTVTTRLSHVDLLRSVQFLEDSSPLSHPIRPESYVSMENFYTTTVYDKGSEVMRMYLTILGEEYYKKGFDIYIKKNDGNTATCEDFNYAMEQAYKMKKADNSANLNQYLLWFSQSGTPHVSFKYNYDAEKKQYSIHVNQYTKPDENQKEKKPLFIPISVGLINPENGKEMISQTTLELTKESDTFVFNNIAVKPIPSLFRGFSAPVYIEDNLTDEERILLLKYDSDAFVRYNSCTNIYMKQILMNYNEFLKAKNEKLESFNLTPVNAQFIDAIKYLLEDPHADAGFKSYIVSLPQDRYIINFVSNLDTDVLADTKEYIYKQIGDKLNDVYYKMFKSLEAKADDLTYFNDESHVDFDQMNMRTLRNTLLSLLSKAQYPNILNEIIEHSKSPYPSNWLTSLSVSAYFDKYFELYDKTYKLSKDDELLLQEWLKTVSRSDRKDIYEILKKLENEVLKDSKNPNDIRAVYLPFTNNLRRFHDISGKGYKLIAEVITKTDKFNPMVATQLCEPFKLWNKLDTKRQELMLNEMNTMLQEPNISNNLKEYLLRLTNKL

[12] = target: Bifunctional protein GlmU (Mycobacterium tuberculosis, UniProt P9WMN3); assay: Inhibitors of Mycobacterial Glucosamine-1-phosphate acetyl transferase (GlmU). Secondary screen.; parameters: species or system Mycobacterium tuberculosis H37Rv
Sequence of Bifunctional protein GlmU (P9WMN3 whole entry): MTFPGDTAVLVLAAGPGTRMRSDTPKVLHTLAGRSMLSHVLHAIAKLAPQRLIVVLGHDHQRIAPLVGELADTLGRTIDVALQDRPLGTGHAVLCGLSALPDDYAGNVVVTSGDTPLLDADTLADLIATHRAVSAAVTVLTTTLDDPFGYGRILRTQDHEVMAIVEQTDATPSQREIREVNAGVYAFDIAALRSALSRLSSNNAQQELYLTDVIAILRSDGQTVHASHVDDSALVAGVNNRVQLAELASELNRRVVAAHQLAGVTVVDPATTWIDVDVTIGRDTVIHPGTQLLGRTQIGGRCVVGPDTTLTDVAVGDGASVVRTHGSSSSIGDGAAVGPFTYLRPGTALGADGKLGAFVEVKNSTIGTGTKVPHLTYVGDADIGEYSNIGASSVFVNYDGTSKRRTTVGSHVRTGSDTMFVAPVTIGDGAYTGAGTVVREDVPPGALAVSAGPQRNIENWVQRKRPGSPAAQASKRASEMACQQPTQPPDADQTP

[13] = target: T4, Alkaline phosphatase, tissue-nonspecific isozyme (Homo sapiens, UniProt P05186); assay: TNAP enzyme activators, dose response, selectivity assay for mouse IAP activator project, biochemical, TNAP isozyme, mouse IAP uHTS hits (AID 488880); format: functional
T4 sequence (P05186 whole entry): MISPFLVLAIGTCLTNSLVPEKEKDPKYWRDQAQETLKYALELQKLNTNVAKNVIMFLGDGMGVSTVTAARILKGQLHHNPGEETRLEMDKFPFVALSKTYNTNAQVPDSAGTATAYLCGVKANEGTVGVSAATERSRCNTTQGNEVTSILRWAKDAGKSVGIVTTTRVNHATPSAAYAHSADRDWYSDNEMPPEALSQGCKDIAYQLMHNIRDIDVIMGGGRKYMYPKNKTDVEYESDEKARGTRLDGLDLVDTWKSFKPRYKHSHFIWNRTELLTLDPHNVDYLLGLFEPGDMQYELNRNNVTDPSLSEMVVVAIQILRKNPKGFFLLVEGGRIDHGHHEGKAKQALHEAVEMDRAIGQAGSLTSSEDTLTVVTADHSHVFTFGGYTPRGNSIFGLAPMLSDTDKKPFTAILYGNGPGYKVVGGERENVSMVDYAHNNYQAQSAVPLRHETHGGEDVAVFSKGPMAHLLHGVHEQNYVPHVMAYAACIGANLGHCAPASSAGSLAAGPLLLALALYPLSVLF

[14] = target: Intestinal-type alkaline phosphatase (Homo sapiens, UniProt P09923); assay: activation of human intestinal alkaline phosphatase – biochemical, dose response (AID 488873); format: functional
[15] = target: T5, Cysteine protease ATG4B (Homo sapiens, UniProt Q9Y4P1); format: functional;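 also: Fluorescence-based dose-response confirmation assay measuring inhibition of ATG4B activity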
T5 sequence (Q9Y4P1 whole entry): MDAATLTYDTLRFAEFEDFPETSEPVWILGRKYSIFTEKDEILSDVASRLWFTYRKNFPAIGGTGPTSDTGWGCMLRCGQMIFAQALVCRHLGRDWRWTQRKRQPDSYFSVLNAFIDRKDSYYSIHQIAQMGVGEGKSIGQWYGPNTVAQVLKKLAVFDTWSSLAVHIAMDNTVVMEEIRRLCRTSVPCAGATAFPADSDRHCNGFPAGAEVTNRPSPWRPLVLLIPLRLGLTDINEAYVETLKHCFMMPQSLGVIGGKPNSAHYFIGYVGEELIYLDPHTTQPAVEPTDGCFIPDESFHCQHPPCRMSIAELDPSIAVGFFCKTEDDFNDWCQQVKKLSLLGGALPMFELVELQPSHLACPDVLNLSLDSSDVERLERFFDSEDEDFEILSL

[16] = target: Intestinal-type alkaline phosphatase (Mus musculus, UniProt P24822); assay: mouse intestinal alkaline phosphatase activators, dose response, biochemical, luminescence, uHTS hits (AID 488783); format: functional
Sequence of Intestinal-type alkaline phosphatase (Mus musculus, UniProt P24822) (P24822 whole entry): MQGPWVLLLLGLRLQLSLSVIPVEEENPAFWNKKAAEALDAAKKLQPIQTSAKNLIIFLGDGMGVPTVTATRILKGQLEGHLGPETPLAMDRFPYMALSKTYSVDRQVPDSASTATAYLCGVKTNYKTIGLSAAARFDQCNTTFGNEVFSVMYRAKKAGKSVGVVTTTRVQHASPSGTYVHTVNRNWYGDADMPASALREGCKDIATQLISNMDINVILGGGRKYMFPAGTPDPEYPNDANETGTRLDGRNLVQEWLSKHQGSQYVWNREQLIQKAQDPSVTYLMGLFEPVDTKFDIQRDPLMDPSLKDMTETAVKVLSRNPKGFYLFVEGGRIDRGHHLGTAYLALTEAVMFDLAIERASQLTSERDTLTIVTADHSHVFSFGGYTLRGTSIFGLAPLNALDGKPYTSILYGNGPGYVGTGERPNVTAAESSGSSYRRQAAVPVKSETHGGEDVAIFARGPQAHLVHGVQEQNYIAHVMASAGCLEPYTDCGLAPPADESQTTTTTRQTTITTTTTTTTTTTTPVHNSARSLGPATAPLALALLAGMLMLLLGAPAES

[17] = target: Likely tRNA 2'-phosphotransferase (Candida albicans (strain SC5314 / ATCC MYA-2876) (Yeast), UniProt Q5A7N4); assay: TPT1 tRNA phosphotransferase inhibitors, dose response, biochemical, fluorescence polarization (AID 2160)
[18] = target: ORF 73 (Human herpesvirus 8, UniProt O40947); assay: inhibitors of C-LANA binding to LBS DNA, dose response, biochemical, fluorescence polarization, cherry-picked samples (AID 504725); parameters: species or system Human gammaherpesvirus 8;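 also: fluorescence polarization of a labeled DNA duplex reporting LANA DNA binding; potency is for inhibitors that block LANA binding to the DNA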
Sequence of ORF 73 (O40947 whole entry): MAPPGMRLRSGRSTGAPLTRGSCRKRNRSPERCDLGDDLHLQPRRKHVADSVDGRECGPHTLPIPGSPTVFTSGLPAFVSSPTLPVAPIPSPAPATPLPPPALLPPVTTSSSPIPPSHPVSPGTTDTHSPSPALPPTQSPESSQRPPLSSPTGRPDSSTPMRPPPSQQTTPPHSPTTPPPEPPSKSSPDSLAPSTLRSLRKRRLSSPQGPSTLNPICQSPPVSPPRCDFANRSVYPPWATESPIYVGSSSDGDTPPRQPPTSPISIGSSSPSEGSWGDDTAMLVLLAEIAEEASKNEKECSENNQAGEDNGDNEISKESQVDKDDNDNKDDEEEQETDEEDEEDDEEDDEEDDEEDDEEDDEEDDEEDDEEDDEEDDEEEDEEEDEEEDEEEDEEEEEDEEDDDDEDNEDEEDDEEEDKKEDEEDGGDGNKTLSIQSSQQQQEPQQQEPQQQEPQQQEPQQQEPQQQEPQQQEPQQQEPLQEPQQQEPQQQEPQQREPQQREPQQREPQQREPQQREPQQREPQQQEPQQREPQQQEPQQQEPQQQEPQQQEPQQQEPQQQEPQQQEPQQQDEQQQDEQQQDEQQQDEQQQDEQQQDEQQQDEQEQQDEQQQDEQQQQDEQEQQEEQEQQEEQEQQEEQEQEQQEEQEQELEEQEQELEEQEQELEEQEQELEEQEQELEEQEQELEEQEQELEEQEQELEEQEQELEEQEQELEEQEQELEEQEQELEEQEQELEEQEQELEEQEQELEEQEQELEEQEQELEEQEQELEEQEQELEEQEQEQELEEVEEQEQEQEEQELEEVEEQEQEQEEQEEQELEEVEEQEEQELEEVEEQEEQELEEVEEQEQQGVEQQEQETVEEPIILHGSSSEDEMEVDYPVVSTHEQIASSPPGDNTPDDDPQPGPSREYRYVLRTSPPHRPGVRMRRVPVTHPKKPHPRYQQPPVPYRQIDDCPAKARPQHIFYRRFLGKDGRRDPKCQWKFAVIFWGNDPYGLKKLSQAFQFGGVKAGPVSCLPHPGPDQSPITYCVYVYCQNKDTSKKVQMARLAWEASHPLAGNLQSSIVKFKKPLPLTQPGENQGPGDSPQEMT

[19] = target: Phosphomannomutase 2 (Homo sapiens, UniProt O15305); assay: Counter screen SAR assay for PMM2 inhibitors via a fluorescence intensity assay. [Related pubchem assays (depositor defined):AID1545, AID1574]
Sequence of Phosphomannomutase 2 (O15305 whole entry): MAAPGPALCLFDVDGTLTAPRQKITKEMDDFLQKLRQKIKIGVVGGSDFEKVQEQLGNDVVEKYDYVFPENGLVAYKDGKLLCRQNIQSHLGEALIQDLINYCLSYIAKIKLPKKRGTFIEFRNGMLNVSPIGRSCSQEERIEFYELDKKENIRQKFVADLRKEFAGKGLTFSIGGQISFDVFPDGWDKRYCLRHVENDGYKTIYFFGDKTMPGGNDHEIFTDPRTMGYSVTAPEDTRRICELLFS

[20] = target: T6, Hexokinase (Trypanosoma brucei, UniProt Q38C41); assay: Confirmation assay for inhibitors of Trypanosoma brucei hexokinase 1-Analogue-first series. [Related pubchem assays (depositor defined):AID1430, AID1632, AID2516, AID2560, AID2579, AID2600, AID449725, AID492951]; format: functional
T6 sequence (Q38C41 whole entry): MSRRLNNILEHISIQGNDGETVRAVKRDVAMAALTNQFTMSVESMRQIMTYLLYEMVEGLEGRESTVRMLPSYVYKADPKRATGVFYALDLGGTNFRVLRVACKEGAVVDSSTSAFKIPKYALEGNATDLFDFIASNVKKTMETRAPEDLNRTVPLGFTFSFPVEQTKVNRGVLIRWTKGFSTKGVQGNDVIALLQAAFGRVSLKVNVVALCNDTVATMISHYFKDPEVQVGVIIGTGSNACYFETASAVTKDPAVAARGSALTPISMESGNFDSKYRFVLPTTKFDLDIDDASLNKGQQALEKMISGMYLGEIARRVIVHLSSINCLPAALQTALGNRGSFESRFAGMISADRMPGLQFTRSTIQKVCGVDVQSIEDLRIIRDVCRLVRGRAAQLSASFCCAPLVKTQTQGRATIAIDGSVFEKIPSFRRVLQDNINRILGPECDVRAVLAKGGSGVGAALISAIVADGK

[21] = target: Phosphoethanolamine/phosphocholine phosphatase (Homo sapiens, UniProt Q8TCT1); assay: SAR assay for compounds that inhibit PHOSPHO1. [Related pubchem assays (depositor defined):AID1545, AID1565, AID1574]
Sequence of Phosphoethanolamine/phosphocholine phosphatase (Q8TCT1 whole entry): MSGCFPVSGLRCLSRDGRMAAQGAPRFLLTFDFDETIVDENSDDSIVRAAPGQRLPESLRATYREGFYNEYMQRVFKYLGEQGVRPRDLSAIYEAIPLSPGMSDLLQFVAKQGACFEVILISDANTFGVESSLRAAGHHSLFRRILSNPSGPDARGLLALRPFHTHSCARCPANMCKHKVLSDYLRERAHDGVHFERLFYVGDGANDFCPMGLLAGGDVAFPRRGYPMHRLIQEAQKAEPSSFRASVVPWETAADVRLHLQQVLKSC

[22] = target: T7, Mannose-6-phosphate isomerase (Homo sapiens, UniProt P34949); assay: PMI enzyme inhibitors, confirmation, biochemical, fluorescence intensity (AID 1535)
T7 sequence (P34949 whole entry): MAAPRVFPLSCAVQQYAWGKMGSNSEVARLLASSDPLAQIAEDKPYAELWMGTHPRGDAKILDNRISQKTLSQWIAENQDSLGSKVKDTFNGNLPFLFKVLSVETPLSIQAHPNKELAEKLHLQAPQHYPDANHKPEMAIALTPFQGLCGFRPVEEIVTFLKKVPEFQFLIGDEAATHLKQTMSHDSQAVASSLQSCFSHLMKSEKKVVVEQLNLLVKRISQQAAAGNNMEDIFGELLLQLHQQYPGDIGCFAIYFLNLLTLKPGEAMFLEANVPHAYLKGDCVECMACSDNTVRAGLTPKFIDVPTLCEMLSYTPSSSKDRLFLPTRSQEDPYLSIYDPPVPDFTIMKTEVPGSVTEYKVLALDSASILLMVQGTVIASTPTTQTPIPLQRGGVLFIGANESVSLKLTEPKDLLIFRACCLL

[23] = target: Trypsin (Sus scrofa, UniProt P00761); assay: porcine trypsin inhibitors, dose response, selectivity assay for Rce1 protease inhibitor project, biochemical, quenched peptide fluorescence, cherry-pick (AID 488789)
Sequence of Trypsin (P00761 whole entry): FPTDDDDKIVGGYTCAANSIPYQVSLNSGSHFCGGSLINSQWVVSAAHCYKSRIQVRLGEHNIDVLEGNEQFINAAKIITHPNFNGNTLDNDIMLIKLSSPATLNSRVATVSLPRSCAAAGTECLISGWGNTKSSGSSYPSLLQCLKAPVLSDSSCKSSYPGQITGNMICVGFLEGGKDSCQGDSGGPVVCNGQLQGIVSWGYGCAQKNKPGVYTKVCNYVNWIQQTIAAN

Sequence of Tyrosine-protein phosphatase non-receptor type 12 (Q05209 whole entry): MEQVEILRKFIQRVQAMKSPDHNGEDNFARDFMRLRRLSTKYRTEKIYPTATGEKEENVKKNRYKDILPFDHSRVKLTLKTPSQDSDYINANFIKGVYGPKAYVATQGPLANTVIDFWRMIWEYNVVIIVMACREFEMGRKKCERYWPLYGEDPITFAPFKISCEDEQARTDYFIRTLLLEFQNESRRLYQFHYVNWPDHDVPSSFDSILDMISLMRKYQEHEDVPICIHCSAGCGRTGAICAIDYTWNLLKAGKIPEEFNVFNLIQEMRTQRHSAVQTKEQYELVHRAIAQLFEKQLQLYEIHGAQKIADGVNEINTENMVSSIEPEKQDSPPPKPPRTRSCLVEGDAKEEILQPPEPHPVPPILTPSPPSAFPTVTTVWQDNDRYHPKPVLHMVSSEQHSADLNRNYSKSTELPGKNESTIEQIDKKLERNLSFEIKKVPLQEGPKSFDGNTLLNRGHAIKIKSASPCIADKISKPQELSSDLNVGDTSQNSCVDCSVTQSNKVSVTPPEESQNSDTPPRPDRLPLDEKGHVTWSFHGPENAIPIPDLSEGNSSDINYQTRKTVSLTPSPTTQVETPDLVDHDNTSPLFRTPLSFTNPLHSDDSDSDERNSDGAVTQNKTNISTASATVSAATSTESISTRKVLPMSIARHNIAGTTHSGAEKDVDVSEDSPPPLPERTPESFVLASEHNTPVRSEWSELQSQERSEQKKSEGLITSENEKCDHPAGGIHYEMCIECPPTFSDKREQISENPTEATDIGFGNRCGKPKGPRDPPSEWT

O=C(O)c1ccc(-c2ccc(/C=C3\SC(=S)N(c4ccc([N+](=O)[O-])cc4)C3=O)o2)cc1
IC50 [1]: 0.216 µM (active)
IC50 [2]: > 100 µM (not active)
IC50 [3]: 0.821 µM (active)
IC50 [4]: 0.602 µM (active)

O=C1/C(=C/C=C/c2ccco2)SC(=S)N1NS(=O)(=O)c1ccccc1
IC50 [5]: 8.28 µM (not active)
IC50 [6]: 25.4 µM (active)
IC50 [7]: 3.1 µM (active)
IC50 [8]: 13 µM (active)
IC50 [9]: 18.5 µM (not active)
AC50 [10]: > 350 µM (inactive)
IC50 [11]: 22.6 µM (active)
IC50 [12]: 49.6 µM (active)
EC50 [13]: > 100 µM (inactive)
EC50 [14]: > 100 µM (inactive)
IC50 [15]: 7.13 µM (active)
EC50 [16]: 3.13 µM (active)
IC50 [17]: 20.8 µM (not active)
AC50 [18]: 177 µM (active)

O=c1c2ccc([N+](=O)[O-])cc2sn1-c1ccccc1
IC50 [19]: > 100 µM (inactive)
IC50 [20]: 11.6 µM (active)
IC50 [21]: 4.23 µM (inactive)
IC50 [22]: > 50 µM (inactive)

CCn1cc(C(=O)NCCO)c(=O)c2cc(F)c(N3CCN(C)CC3)cc21
AC50 [23]: 39.2 µM (active)
